# Laboratory results: article PMC6934184, “Selective DNA-PKcs inhibition extends the therapeutic index of localized radiotherapy and chemotherapy” (The Journal of Clinical Investigation, 2019)
# Target: T1, CDC42 BPA (MRCKA) (Homo sapiens, UniProt Q5VT25)
# T1 construct: purchased Thermo Fisher Scientific (Life Technologies) SelectScreen
# Test: SelectScreen Z'LYTE
# Assay type: biochemical
# Outline: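 SelectScreen broad panel; activity (Z'LYTE, Adapta) plus binding formats. ATP: Km app for CSF1R Z'LYTE; 10 for CAMK1 Adapta. Readout = % per kinase.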
# T1 sequence (Q5VT25 whole entry): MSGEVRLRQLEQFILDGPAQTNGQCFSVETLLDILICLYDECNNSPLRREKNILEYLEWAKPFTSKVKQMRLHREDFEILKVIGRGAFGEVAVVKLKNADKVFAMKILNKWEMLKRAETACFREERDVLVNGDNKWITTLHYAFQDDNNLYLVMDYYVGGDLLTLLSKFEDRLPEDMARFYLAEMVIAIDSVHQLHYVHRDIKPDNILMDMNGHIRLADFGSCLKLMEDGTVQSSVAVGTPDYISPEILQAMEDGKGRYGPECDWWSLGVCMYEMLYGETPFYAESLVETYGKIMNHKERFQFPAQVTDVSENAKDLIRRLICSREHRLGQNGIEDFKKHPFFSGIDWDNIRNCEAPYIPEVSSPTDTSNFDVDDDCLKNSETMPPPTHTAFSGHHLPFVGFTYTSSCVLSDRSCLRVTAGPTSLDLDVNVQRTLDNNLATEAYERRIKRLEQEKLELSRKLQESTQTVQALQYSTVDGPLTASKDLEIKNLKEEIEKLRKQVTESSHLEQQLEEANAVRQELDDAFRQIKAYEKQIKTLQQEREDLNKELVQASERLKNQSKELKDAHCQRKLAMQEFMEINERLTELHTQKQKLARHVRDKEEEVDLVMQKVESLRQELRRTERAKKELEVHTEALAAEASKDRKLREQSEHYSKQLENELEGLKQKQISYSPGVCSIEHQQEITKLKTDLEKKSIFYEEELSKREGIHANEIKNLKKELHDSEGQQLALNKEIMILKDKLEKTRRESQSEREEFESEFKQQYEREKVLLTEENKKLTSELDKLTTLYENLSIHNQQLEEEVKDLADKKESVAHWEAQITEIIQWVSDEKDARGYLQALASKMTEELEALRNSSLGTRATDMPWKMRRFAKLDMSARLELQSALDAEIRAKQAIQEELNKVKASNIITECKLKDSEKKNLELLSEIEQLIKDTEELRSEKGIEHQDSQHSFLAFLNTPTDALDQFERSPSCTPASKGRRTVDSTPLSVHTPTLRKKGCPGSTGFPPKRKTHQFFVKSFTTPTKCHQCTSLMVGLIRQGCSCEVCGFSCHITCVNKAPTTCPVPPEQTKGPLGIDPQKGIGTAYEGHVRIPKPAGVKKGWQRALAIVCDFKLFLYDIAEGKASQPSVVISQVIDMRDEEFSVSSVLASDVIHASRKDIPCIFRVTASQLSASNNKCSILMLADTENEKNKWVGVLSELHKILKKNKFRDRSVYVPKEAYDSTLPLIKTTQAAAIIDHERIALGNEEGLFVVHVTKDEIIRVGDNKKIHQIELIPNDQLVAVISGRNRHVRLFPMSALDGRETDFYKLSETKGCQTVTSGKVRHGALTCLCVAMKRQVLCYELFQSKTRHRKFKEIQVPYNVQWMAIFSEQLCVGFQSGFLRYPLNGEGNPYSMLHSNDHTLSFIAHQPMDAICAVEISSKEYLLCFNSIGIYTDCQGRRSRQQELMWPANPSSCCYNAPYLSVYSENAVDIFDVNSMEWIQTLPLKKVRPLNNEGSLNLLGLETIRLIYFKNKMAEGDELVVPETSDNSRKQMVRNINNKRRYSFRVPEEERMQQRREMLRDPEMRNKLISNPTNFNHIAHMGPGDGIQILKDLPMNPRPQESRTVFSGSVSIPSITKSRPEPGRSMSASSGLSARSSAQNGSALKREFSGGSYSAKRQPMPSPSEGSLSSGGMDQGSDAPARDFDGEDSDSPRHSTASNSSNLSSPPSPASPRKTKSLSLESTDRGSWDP
structure (smiles),measurement,value
CN(C(=O)CN1CCOCC1)c1ccc2sc3c(-c4cccc5c(=O)cc(N6CC7CCC(C6)O7)oc45)cccc3c2c1 [NU5455],inhibition at 1 µM,5%
